Test: Clearance in rat hepatocytes
Assay type: in vitro ADME
Details: hepatic extraction ratio; 0.5 μM compound, 1×10^6 cells/mL, 20 min
Experimental: Test compounds and 4 control compounds are tested in duplicate per run. Test compound concentration is 0.5 μM and cell concentration is 1×10^6 cells/mL in the incubation. The described method is performed by the liquid handling system Tecan RSP and is based on a 96-well format.
The liver is collected from a male Spraque-Dawley rat. One liver lobe is cut off and flushed with various buffers to loosen the cells. The cell suspension is washed and centrifuged, and the cell density is adjusted to 1.2×10^6 cells/mL with Krebs-Henseleit buffer, pH 7.4, containing 0.2% bovine serum albumin (BSA). Only cell suspensions with viability above 80% are used.
The cell suspension is pre-heated (20 min) to 37° C. Test compound is added, and the mixture is incubated for 20 minutes. Incubations are run in duplicate. Samples are withdrawn at predetermined stop times and mixed with methanol containing internal standard (IS) to terminate all enzyme activity and precipitate proteins.
The percentage of organic solvent in the incubations is less than 1%. Careful inspections of reagents are performed prior to the start of any experiment to ensure all reagents are in solution.
The 96-well plates are centrifuged. Test compound depletion, using a compound specific LC/MS/MS method, is determined.
Data analysis is performed as described above in the section “Biological assay for analysis of clearance in human liver microsomes”, with the following modifications:
Intrinsic clearance (Clint) (mL/min/10^6 cells) is calculated from: […]
where c is the cell concentration in 10^6 cells/mL.
The following scaling factors for rat are used for eq. 4:
a: 120 (cells/liver weight (10^6 cells/g)) b: 10 (liver weight (g)) d: 0.25 (body weight (kg))
Liver blood flow in rats (for eq. 5):
Apparent clearance below approximately 25 mL/min/kg rat body weight (corresponding to an extraction ratio of approx. 33%) is considered as low clearance (high metabolic stability). Apparent intrinsic clearance above approximately 165 mL/min/kg rat body weight (corresponding to an extraction ratio of approx. 75%) is considered as high clearance (low metabolic stability).

Row | Compound | Clearance (% Eh) in rat hepatocytes
1 | C[C@@H](N[C@H]1CC[C@@H](c2ccc(NCCNCCO)nc2)C1)c1cccc2ccccc12.O=CO.O=CO.O=CO [Compound 101, 2-[2-[[5-[(1R,3S)-3-[[(1R)-1-(1-Naphthyl)ethyl]amino]cyclopentyl]-2-pyridyl]amino]ethylamino]ethanol] | B (B: 33% ≦ Eh ≦ 75%)
2 | COc1cc([C@@H](C)N[C@H]2CC[C@@H](c3ccc(NC4CCNCC4)nc3)C2)ccc1F [Compound 107, 5-[(1R,3S)-3-[[(1R)-1-(4-Fluoro-3-methoxy-phenyl)ethyl]amino]cyclopentyl]-N-(4-piperidyl)pyridin-2-amine] | A (A: Eh < 33%)
3 | COc1cc([C@@H](C)N[C@H]2CC[C@@H](c3ccc(N4CCNC(=O)C4)nc3)C2)ccc1F [Compound 109, 4-[5-[(1R,3S)-3-[[(1R)-1-(4-Fluoro-3-methoxy-phenyl)ethyl]amino]cyclopentyl]-2-pyridyl]piperazin-2-one] | A (A: Eh < 33%)
4 | COc1cc([C@@H](C)N[C@H]2CC[C@@H](c3ccc(NCCS(N)(=O)=O)nc3)C2)ccc1F [Compound 113, 2-[[5-[(1R,3S)-3-[[(1R)-1-(4-Fluoro-3-methoxyphenyl)ethyl]amino]cyclopentyl]-2-pyridyl]amino]ethanesulfonamide] | A (A: Eh < 33%)
5 | COc1cc([C@@H](C)N[C@H]2CC[C@@H](c3ccc(NCC(O)CO)nc3)C2)ccc1F (stereo partly drawn) [Compound 115, 3-[[5-[(1R,3S)-3-[[(1R)-1-(4-Fluoro-3-methoxyphenyl)ethyl]amino]cyclopentyl]-2-pyridyl]amino]propane-1,2-diol] | A (A: Eh < 33%)
6 | COc1cc([C@@H](C)N[C@H]2CC[C@@H](c3ccc(N4CCN(C(C)=O)CC4)nc3)C2)ccc1F [Compound 116, 1-[4-[5-[(1R,3S)-3-[[(1R)-1-(4-Fluoro-3-methoxyphenyl)ethyl]amino]cyclopentyl]-2-pyridyl]piperazin-1-yl]ethanone] | A (A: Eh < 33%)
7 | COc1cc([C@@H](C)N[C@H]2CC[C@@H](c3cnc(N4CCNC(=O)C4)nc3)C2)ccc1F [Compound 126, 4-[5-[(1R,3S)-3-[[(1R)-1-(4-Fluoro-3-methoxy-phenyl)ethyl]amino]cyclopentyl]pyrimidin-2-yl]piperazin-2-one] | B (B: 33% ≦ Eh ≦ 75%)
8 | COc1cc([C@@H](C)N[C@H]2CC[C@@H](c3cnc(N4CCN(C(C)=O)CC4)nc3)C2)ccc1F.O=CO [Compound 127, 1-[4-[5-[(1R,3S)-3-[[(1R)-1-(4-Fluoro-3-methoxy-phenyl)ethyl]amino]cyclopentyl]pyrimidin-2-yl]piperazin-1-yl]ethanone] | A (A: Eh < 33%)

Source: US20130267516A1, “SUBSTITUTED CYCLOPENTYL-AZINES AS CASR-ACTIVE COMPOUNDS” (LEO PHARMA A/S, priority 2010, published 2013)
